Experimental data reported in patent US8435928B2, “Herbicidal composition” (Ishihara Sangyo Kaisha, Ltd., priority 2007, dated 2013).

How the values were obtained:
crabgrass [1] = assay: Test Example 7: foliar application of compound No. 2-1 wettable powder with surfactant, crabgrass; format: in vivo, Digitaria sanguinalis L.; conditions: 15 g a.i./ha wettable powder, 21st day
From the text: (§1) On the 21st day after the application, the state of growth of the plants was visually observed (growth inhibition rate (%)=0 (the same as the untreated plot) to 100 (complete kill)), and the results as shown in Tables b1 and b2 were obtained.
(§2) Upland field soil was put into a 1/1,000,000 ha pot, and seeds of crabgrass were sown and grown in a greenhouse. When crabgrass reached 4.0 to 5.0 leaf stage, a prescribed amount (15 g a.i./ha) of a wettable powder comprising compound No. 2-1 as an active ingredient, prepared in accordance with the above Example 1, was diluted with water corresponding to 300 L/ha (containing 0.05 vol % of a surfactant containing the POA alkyl ether phosphate), followed by foliar application. Further, for comparison, foliar application was carried out in the same manner by using a silicon surfactant (tradename: SILWETT L-77) at a concentration of 0.1 vol % instead of the above surfactant.
On the 21st day after the application, the state of growth of the plant was evaluated in the same manner as in Test Example 1, and the results as shown in Table b10 were obtained.

crabgrass [2] = assay: Test Example 9: foliar application of compound No. 2-39 wettable powder with surfactant, crabgrass; format: in vivo, Digitaria sanguinalis L.; conditions: 15 g a.i./ha wettable powder, 21st day
From the text: as §1
as §2, with “4.5” for “5.0”, “2-39” for “2-1”, “using” for “using a silicon surfactant (tradename:”, “L-77” for “L-77)”
On the 21st day after the application, the state of growth of the plant was evaluated in the same manner as in Test Example 1, and the results as shown in Table b13 were obtained.

[3] = tested on: crabgrass (Digitaria sanguinalis L.); assay: Test Example 1: foliar application of compound No. 1 wettable powder with surfactant, visual growth inhibition, crabgrass; format: in vivo; conditions: 15 g a.i./ha wettable powder, 21st day
Method: (§3) Upland field soil was put into a 1/1,000,000 ha pot, and seeds of crabgrass (Digitaria sanguinalis L.) and velvetleaf (Abutilon theophrasti L.) were respectively sown and grown in a greenhouse. When crabgrass reached 4.2 to 5.0 leaf stage and velvetleaf reached 3.5 to 4.3 leaf stage, a prescribed amount (15 g a.i./ha) of a wettable powder comprising compound No. 1 as an active ingredient, prepared in accordance with the above Example 1, was diluted with water corresponding to 300 L/ha (containing 0.05 vol % of a surfactant containing the POA alkyl ether phosphate), followed by foliar application (the present invention). Further, for comparison, foliar application was carried out in the same manner by using an alkylaryl polyglycol ether surfactant (tradename: CITOWETT) at a concentration of 0.1 vol %, instead of the above surfactant (comparison).
as §1

[4] = tested on: velvetleaf (Abutilon theophrasti L.); assay: Test Example 1: foliar application of compound No. 1 wettable powder with surfactant, visual growth inhibition, velvetleaf; format: in vivo; conditions: 15 g a.i./ha wettable powder, 21st day
Method: as §3, §1

[5] = tested on: crabgrass (Digitaria sanguinalis L.); assay: Test Example 4: foliar application of compound No. 2-27 wettable powder with surfactant, crabgrass; format: in vivo; conditions: 15 g a.i./ha wettable powder, 21st day
Method: as §3, §1
(§4) The results as shown in Tables b6 and b7 were obtained in the same manner as in the above Test Example 1 except that a prescribed amount (15 g a.i./ha or 7 g a.i./ha) of a wettable powder comprising compound No. 2-27 as an active ingredient, prepared in accordance with the above Example 4, was used.

[6] = tested on: velvetleaf (Abutilon theophrasti L.); assay: Test Example 4: foliar application of compound No. 2-27 wettable powder with surfactant, velvetleaf; format: in vivo; conditions: 7 g a.i./ha wettable powder, 21st day
Method: as §3, §1, §4

crabgrass [7] = assay: Test Example 11: foliar application of compound No. 4-3 wettable powder with surfactant, crabgrass; format: in vivo, Digitaria sanguinalis L.; conditions: 15 g a.i./ha wettable powder, 21st day
From the text: as §1
as §2, with “4-3” for “2-1”, “using” for “using a silicon surfactant (tradename:”, “L-77 (tradename)” for “L-77)”
On the 21st day after the application, the state of growth of the plant was evaluated in the same manner as in Test Example 1, and the results as shown in Table b16 were obtained.

[8] = tested on: crabgrass (Digitaria sanguinalis L.); assay: Test Example 2: foliar application of compound No. 53 suspension concentrate with surfactant, crabgrass; format: in vivo; conditions: 15 g a.i./ha water-based suspension concentrate, 21st day
Method: as §3, §1
(§5) The results as shown in Tables b3 and b4 were obtained in the same manner as the above Test Example 1 except that a prescribed amount (15 g a.i./ha) of a water-based suspension concentrate comprising compound No. 53 as an active ingredient, prepared in accordance with the above Example 2, was used.

[9] = tested on: velvetleaf (Abutilon theophrasti L.); assay: Test Example 2: foliar application of compound No. 53 suspension concentrate with surfactant, velvetleaf; format: in vivo; conditions: 15 g a.i./ha water-based suspension concentrate, 21st day
Method: as §3, §1, §5

crabgrass [10] = assay: Test Example 3: foliar application of compound No. 238 suspension concentrate with surfactant, crabgrass; format: in vivo, Digitaria sanguinalis L.; conditions: 30 g a.i./ha water-based suspension concentrate, 21st day
From the text: On the 21st day after the application, the state of growth of the plants was visually observed (growth inhibition rate (%)=0 (the same as the untreated plot) to 100 (complete kill)), and the results as shown in Tables b1 and b2 were obtained. Upland field soil was put into a 1/1,000,000 ha pot, and seeds of crabgrass were sown and grown in a greenhouse. When crabgrass reached 4.5 to 5.0 leaf stage, a prescribed amount (30 g a.i./ha) of a water-based suspension concentrate comprising compound No. 238 as an active ingredient, prepared in accordance with the above Example 6, was diluted with water corresponding to 300 L/ha (containing 0.05 vol % of a surfactant containing the POA alkyl ether phosphate), followed by foliar application. Further, for comparison, foliar application was carried out in the same manner by using CITOWETT (tradename) at a concentration of 0.3 vol %, instead of the above surfactant. On the 21st day after the application, the state of growth of the plant was evaluated in the same manner as in Test Example 1, and the results as shown in Table b5 were obtained.

crabgrass [11] = assay: Test Example 6: foliar application of compound No. 238 suspension concentrate with surfactant and optional oil or emulsifying agent, crabgrass; format: in vivo, Digitaria sanguinalis L.; conditions: 7 g a.i./ha suspension concentrate, ADEKA COL PS-440E 0.03 vol %, 20th day
From the text: as §1
Upland field soil was put into a 1/1,000,000 ha pot, and seeds of crabgrass were sown and grown in a greenhouse. When crabgrass reached 3.8 to 4.1 leaf stage, a prescribed amount (7 g a.i./ha) of a water-based suspension concentrate comprising compound No. 238 as an active ingredient, prepared in accordance with the above Example 3, was diluted with water corresponding to 300 L/ha (containing 0.03 vol % of a surfactant containing the POA alkyl ether phosphate and optionally having 0.03 vol % of a fatty acid ester, a hydrocarbon solvent or an emulsifying agent added), followed by foliar application. The fatty acid ester used here was AGNIQUE Me 18RD-F (tradename), the hydrocarbon solvent was Solvesso 150 (tradename) and the emulsifying agent was a mixture of a polyoxyethylene sorbitol tetraoleate, a polyoxyethylene castor oil and calcium dodecylbenzene sulfonate.
On the 20th day after the application, the state of growth of the plant was evaluated in the same manner as in Test Example 1, and the results as shown in Table b9 were obtained.

[12] = surfactant PHOSPHANOL RS-710 0.05 vol %, present invention
[13] = surfactant PLYSURF A219B 0.05 vol %, present invention
[14] = surfactant SILWETT L-77 0.1 vol %, comparison
[15] = surfactant ADECA COL PS-440E 0.05 vol %, present invention
[16] = surfactant NIKKOL DDP-8 0.05 vol %, present invention
[17] = surfactant PHOSPHANOL RS-410 0.05 vol %, present invention
[18] = surfactant CITOWETT 0.1 vol %, comparison
[19] = surfactant NIKKOL TDP-8 0.05 vol %, present invention

In the case of COC(=O)c1c(S(C)(=O)=O)ccc(C(=O)c2cnn(C)c2O)c1C [2-1], the “Growth inhibition rate (%) of crabgrass” value (crabgrass [1]; [12]) is reported as 75%, the “Growth inhibition rate (%) of crabgrass” value (crabgrass [1]; [13]) is reported as 70% and the “Growth inhibition rate (%) of crabgrass” value (crabgrass [1]; [14]) is reported as 10%.

In the case of CCOCc1c(S(C)(=O)=O)ccc(C(=O)c2cnn(C)c2O)c1C [2-39], the “Growth inhibition rate (%) of crabgrass” value (crabgrass [2]; [15]) is reported as 93%, the “Growth inhibition rate (%) of crabgrass” value (crabgrass [2]; [16]) is reported as 93% and the “Growth inhibition rate (%) of crabgrass” value (crabgrass [2]; [17]) is reported as 70%. The “Growth inhibition rate (%) of crabgrass” value (crabgrass [2]; [14]) was 20%.

With CCSC(=O)Oc1c(C(=O)c2ccc(S(C)(=O)=O)c(C(=O)OC)c2C)cnn1C [Compound No. 1] the “Growth inhibition rate (%) of crabgrass” value [3, 15] was 70%, the “Growth inhibition rate (%) of crabgrass” value [3, 18] was 50% and the “Growth inhibition rate (%) of crabgrass” value [3, 16] was 73%. The “Growth inhibition rate (%) of crabgrass” value [3, 13] was 60%, the “Growth inhibition rate (%) of velvetleaf” value [4, 15] was 93% and the “Growth inhibition rate (%) of velvetleaf” value [4, 18] was 73%. The “Growth inhibition rate (%) of velvetleaf” value [4, 16] was 93% and the “Growth inhibition rate (%) of velvetleaf” value [4, 13] was 90%.

For COCCOc1c(S(C)(=O)=O)ccc(C(=O)c2cnn(C)c2O)c1C [Compound No. 2-27], the “Growth inhibition rate (%) of crabgrass” value [5, 15] was 90%, the “Growth inhibition rate (%) of crabgrass” value [5, 18] was 78% and the “Growth inhibition rate (%) of crabgrass” value [5, 16] was 90%. For the same compound, the “Growth inhibition rate (%) of crabgrass” value [5, 13] was 94%, the “Growth inhibition rate (%) of velvetleaf” value [6, 15] was 80% and the “Growth inhibition rate (%) of velvetleaf” value [6, 18] was 63%. For the same compound, the “Growth inhibition rate (%) of velvetleaf” value [6, 16] was 95% and the “Growth inhibition rate (%) of velvetleaf” value [6, 13] was 70%.

With CCOC(=O)OC(C)Oc1c(C(=O)c2ccc(S(C)(=O)=O)c(OCCOC)c2C)cnn1CC (centres unmarked) [Compound No. 4-3] the “Growth inhibition rate (%) of crabgrass” value (crabgrass [7]; [15]) was 83%, the “Growth inhibition rate (%) of crabgrass” value (crabgrass [7]; [16]) was 80% and the “Growth inhibition rate (%) of crabgrass” value (crabgrass [7]; [19]) was 85%. For the same compound, the “Growth inhibition rate (%) of crabgrass” value (crabgrass [7]; surfactant PHOSPHANOL ML-240 0.05 vol %, present invention) was 90%, the “Growth inhibition rate (%) of crabgrass” value (crabgrass [7]; [17]) was 80% and the “Growth inhibition rate (%) of crabgrass” value (crabgrass [7]; [12]) was 80%. For the same compound, the “Growth inhibition rate (%) of crabgrass” value (crabgrass [7]; surfactant PHOSPHOLAN PS-236 0.05 vol %, present invention) was 80%, the “Growth inhibition rate (%) of crabgrass” value (crabgrass [7]; [13]) was 98% and the “Growth inhibition rate (%) of crabgrass” value (crabgrass [7]; [14]) was 55%.

For CCSC(=O)Oc1c(C(=O)c2ccc(S(C)(=O)=O)c(OCCOC)c2C)cnn1C [Compound No. 53], the “Growth inhibition rate (%) of crabgrass” value [8, 15] was 90%, the “Growth inhibition rate (%) of crabgrass” value [8, 18] was 50% and the “Growth inhibition rate (%) of crabgrass” value [8, 16] was 90%. For the same compound, the “Growth inhibition rate (%) of crabgrass” value [8, 13] was 78%, the “Growth inhibition rate (%) of velvetleaf” value [9, 15] was 93% and the “Growth inhibition rate (%) of velvetleaf” value [9, 18] was 78%. The “Growth inhibition rate (%) of velvetleaf” value [9, 16] was 98% and the “Growth inhibition rate (%) of velvetleaf” value [9, 13] was 90%.

COCCOc1c(S(C)(=O)=O)ccc(C(=O)c2cnn(C)c2OC(=O)SC(C)(C)C)c1C [Compound No. 238] was tested, and the “Growth inhibition rate (%) of crabgrass” value (crabgrass [10]; surfactant ADEKA COL PS-440E 0.05 vol %, present invention) was 75%, the “Growth inhibition rate (%) of crabgrass” value (crabgrass [10]; surfactant CITOWETT 0.3 vol %, comparison) was 50% and the “Growth inhibition rate (%) of crabgrass” value (crabgrass [10]; [16]) was 90%. For the same compound, the “Growth inhibition rate (%) of crabgrass” value (crabgrass [10]; [19]) was 90%, the “Growth inhibition rate (%) of crabgrass” value (crabgrass [10]; surfactant PHOSPHANOL RS710 0.05 vol %, present invention) was 80% and the “Growth inhibition rate (%) of crabgrass” value (crabgrass [10]; [13]) was 90%. For the same compound, the “Growth inhibition rate (%) of crabgrass” value (crabgrass [11]; fatty acid ester and emulsifying agent added) was 83%, the “Growth inhibition rate (%) of crabgrass” value (crabgrass [11]; fatty acid ester, hydrocarbon solvent and emulsifying agent added) was 85% and the “Growth inhibition rate (%) of crabgrass” value (crabgrass [11]; hydrocarbon solvent and emulsifying agent added) was 83%. For the same compound, the “Growth inhibition rate (%) of crabgrass” value (crabgrass [11]; no fatty acid ester, hydrocarbon solvent or emulsifying agent) was 73%.
